Patent US11820766B2, “Monoacylglycerol lipase modulators” (Janssen Pharmaceutica NV, priority 2018, dated 2023)

The compounds below were run against T1, human MGL from HeLa cells (Homo sapiens, UniProt Q99685) (assay: In vitro MGL activity assay: [glycerol-1,3-3H]-oleyl glycerol cleavage by MGL from HeLa cells). Settings: 300 nM [Glycerol-1,3-3H]-oleyl glycerol, one hour.
T1 construct: combining endogenously expressed MGL from HeLa cells with test compounds; endogenous in cells; host or cells: HeLa cells / cell homogenates
T1 sequence (Q99685 1-303): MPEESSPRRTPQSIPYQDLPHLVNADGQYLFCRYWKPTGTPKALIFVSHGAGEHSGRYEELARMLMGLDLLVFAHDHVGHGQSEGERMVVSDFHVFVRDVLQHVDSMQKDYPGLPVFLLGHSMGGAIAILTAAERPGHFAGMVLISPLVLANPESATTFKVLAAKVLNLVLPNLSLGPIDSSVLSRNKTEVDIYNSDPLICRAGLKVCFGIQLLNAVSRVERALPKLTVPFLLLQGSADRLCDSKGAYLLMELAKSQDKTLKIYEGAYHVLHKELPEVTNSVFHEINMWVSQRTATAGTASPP
Format: biochemical
Text: MGL is the predominant hydrolase in HeLa cells/cell homogenates.

Structure (SMILES)	IC50 [µM]
Cc1cc(-c2c3c(nn2C)[C@H](C)N(C(=O)c2ccc4ncccc4c2)CC3)ccn1 [Example 520, [(7S)-2,7-Dimethyl-3-(2-methyl-4-pyridyl)-5,7-dihydro-4H-pyrazolo[3,4-c]pyridin-6-yl]-(6-quinolyl)methanone]	1.11
C[C@H]1c2nn(C)c(-c3ccc(C(F)(F)F)nc3)c2CCN1C(=O)c1ccc2ncccc2c1 [Example 522, [(7S)-2,7-Dimethyl-3-[6-(trifluoromethyl)-3-pyridyl]-5,7-dihydro-4H-pyrazolo[3,4-c]pyridin-6-yl]-(6-quinolyl)methanone]	0.267
Cc1cnc2c(C(=O)N3CCc4c(nn(C)c4-c4cc(F)c(F)c(F)c4)[C@@H]3C)cnn2c1 [Example 451, [(7S)-2,7-Dimethyl-3-(3,4,5-trifluorophenyl)-5,7-dihydro-4H-pyrazolo[3,4-c]pyridin-6-yl]-(6-methylpyrazolo[1,5-a]pyrimidin-3-yl)methanone]	0.199
Cc1c(C(=O)N2CCc3c(nn(C)c3-c3cc(F)c(F)c(F)c3)[C@@H]2C)nn2c1COC(C)(C)C2 [Example 557, [(7S)-2,7-Dimethyl-3-(3,4,5-trifluorophenyl)-5,7-dihydro-4H-pyrazolo[3,4-c]pyridin-6-yl]-(3,6,6-trimethyl-4,7-dihydropyrazolo[5,1-c][1,4]oxazin-2-yl)methanone]	1.84
Cc1nc2c(C)cccn2c1C(=O)N1CCc2c(nn(C)c2-c2cc(F)c(F)c(F)c2)[C@@H]1C [Example 403, (2,8-Dimethylimidazo[1,2-a]pyridin-3-yl)-[(7S)-2,7-dimethyl-3-(3,4,5-trifluorophenyl)-5,7-dihydro-4H-pyrazolo[3,4-c]pyridin-6-yl]methanone]	0.0436
C[C@H]1c2nn(C)c(-c3ccc(F)cc3Cl)c2CCN1C(=O)c1ccc2ncccc2c1 [Example 506, [(7S)-3-(2-Chloro-4-fluoro-phenyl)-2,7-dimethyl-5,7-dihydro-4H-pyrazolo[3,4-c]pyridin-6-yl]-(6-quinolyl)methanone]	0.347
C[C@H]1c2nn(C)c(-c3cc(F)c(F)c(F)c3)c2CCN1C(=O)c1cccc2c1ncn2C [Example 366, [(7S)-2,7-Dimethyl-3-(3,4,5-trifluorophenyl)-5,7-dihydro-4H-pyrazolo[3,4-c]pyridin-6-yl]-(1-methylbenzimidazol-4-yl)methanone]	0.0519
Cc1ccn2c(C(=O)N3CCc4c(nn(C)c4-c4cc(F)c(F)c(F)c4)[C@@H]3C)c(C)nc2c1 [Example 404, (2,7-Dimethylimidazo[1,2-a]pyridin-3-yl)-[(7S)-2,7-dimethyl-3-(3,4,5-trifluorophenyl)-5,7-dihydro-4H-pyrazolo[3,4-c]pyridin-6-yl]methanone]	0.0505
C[C@H]1c2nn(C)c(-c3cc(F)c(F)c(F)c3)c2CCN1C(=O)c1cccn2ccnc12 [Example 392, [(7S)-2,7-Dimethyl-3-(3,4,5-trifluorophenyl)-5,7-dihydro-4H-pyrazolo[3,4-c]pyridin-6-yl]-imidazo[1,2-a]pyridin-8-yl-methanone]	0.711
Cc1ccn2c(C(=O)N3CCc4c(nn(C)c4-c4cc(F)c(F)c(F)c4)[C@@H]3C)cnc2c1 [Example 399, [(7S)-2,7-Dimethyl-3-(3,4,5-trifluorophenyl)-5,7-dihydro-4H-pyrazolo[3,4-c]pyridin-6-yl]-(7-methylimidazo[1,2-a]pyridin-3-yl)methanone]	0.0632

Same assay, conditions: 300 nM [Glycerol-1,3-3H]-oleyl glycerol, one hour incubation

Structure (SMILES)	IC50 [µM]
Cn1nc2c(c1-c1ccccc1)CCN(C(=O)c1ncn(-c3ccccc3)n1)C2 [Example 23, (2-Methyl-3-phenyl-2,4,5,7-tetrahydro-6H-pyrazolo[3,4-c]pyridin-6-yl)(1-phenyl-1H-1,2,4-triazol-3-yl)methanone]	0.847
Cn1nc2c(c1-c1ccccc1)CCN(C(=O)c1coc3ccccc13)C2 [Example 36, Benzofuran-3-yl(2-methyl-3-phenyl-2,4,5,7-tetrahydro-6H-pyrazolo[3,4-c]pyridin-6-yl)methanone]	0.75
Cn1nc2c(c1-c1ccccc1)CCN(C(=O)c1cnn3ccccc13)C2 [Example 74, (2-Methyl-3-phenyl-2,4,5,7-tetrahydro-6H-pyrazolo[3,4-c]pyridin-6-yl)(pyrazolo[1,5-a]pyridin-3-yl)methanone]	0.613
CCc1nc(C(=O)N2CCc3c(nn(C)c3-c3cc(F)cc(F)c3)[C@@H]2C)nn1-c1ccccc1 [Example 149, (S)-(3-(3,5-Difluorophenyl)-2,7-dimethyl-2,4,5,7-tetrahydro-6H-pyrazolo[3,4-c]pyridin-6-yl)(5-ethyl-1-phenyl-1H-1,2,4-triazol-3-yl)methanone]	0.0119
COc1ccc(C(=O)N2CCc3c(nn(C)c3-c3cc(F)c(F)c(F)c3)[C@@H]2C)nc1 [Example 301, [(7S)-2,7-Dimethyl-3-(3,4,5-trifluorophenyl)-5,7-dihydro-4H-pyrazolo[3,4-c]pyridin-6-yl]-(5-methoxy-2-pyridyl)methanone]	0.248
C[C@H]1c2nn(C)c(-c3cc(F)c(F)c(F)c3)c2CCN1C(=O)c1cccc(-n2cnnc2)c1 [Example 290, [(7S)-2,7-Dimethyl-3-(3,4,5-trifluorophenyl)-5,7-dihydro-4H-pyrazolo[3,4-c]pyridin-6-yl]-[3-(1,2,4-triazol-4-yl)phenyl]methanone]	0.0718
CC1c2nn(C)c(-c3cc(F)cc(F)c3)c2CCN1C(=O)c1ccc2ccncc2c1 (stereo not shown) [Example 161, (3-(3,5-Difluorophenyl)-2,7-dimethyl-2,4,5,7-tetrahydro-6H-pyrazolo[3,4-c]pyridin-6-yl)(isoquinolin-7-yl)methanone]	0.26
COc1cnccc1C(=O)N1CCc2c(nn(C)c2-c2cc(F)c(F)c(F)c2)[C@@H]1C [Example 311, [(7S)-2,7-Dimethyl-3-(3,4,5-trifluorophenyl)-5,7-dihydro-4H-pyrazolo[3,4-c]pyridin-6-yl]-(3-methoxy-4-pyridyl)methanone]	0.0871
COc1nccc(C(=O)N2CCc3c(nn(C)c3-c3cc(F)c(F)c(F)c3)[C@@H]2C)c1Cl [Example 316, (3-Chloro-2-methoxy-4-pyridyl)-[(7S)-2,7-dimethyl-3-(3,4,5-trifluorophenyl)-5,7-dihydro-4H-pyrazolo[3,4-c]pyridin-6-yl]methanone]	0.0172
CC(C)Oc1cncc(C(=O)N2CCc3c(nn(C)c3-c3cc(F)c(F)c(F)c3)[C@@H]2C)c1 [Example 305, [(7S)-2,7-Dimethyl-3-(3,4,5-trifluorophenyl)-5,7-dihydro-4H-pyrazolo[3,4-c]pyridin-6-yl]-(5-isopropoxy-3-pyridyl)methanone]	0.229
Cn1nc2c(c1-c1ccccc1)CCN(C(=O)c1cccc3[nH]c(C(F)(F)F)nc13)C2 [Example 72, (2-Methyl-3-phenyl-2,4,5,7-tetrahydro-6H-pyrazolo[3,4-c]pyridin-6-yl)(2-(trifluoromethyl)-1H-benzo[d]imidazol-4-yl)methanone]	2.32
C[C@H]1c2nn(C)c(-c3cc(F)c(F)c(F)c3)c2CCN1C(=O)c1cc(-n2nccn2)cc(C(F)(F)F)c1 [Example 287, [(7S)-2,7-Dimethyl-3-(3,4,5-trifluorophenyl)-5,7-dihydro-4H-pyrazolo[3,4-c]pyridin-6-yl]-[3-(triazol-2-yl)-5-(trifluoromethyl)phenyl]methanone]	0.0604
